# Assay results reported in ChEMBL document CHEMBL3885861, “Open TG-GATES”.
# Species on record: Rattus norvegicus
# Assay: Open TG-GATES - Regimen: Daily Repeat
# Format: toxicity, organism-based, Sprague-Dawley
# Design: regimen Daily Repeat, gender Male, age 6 weeks
# Settings: in vivo, po, 0 mg/kg, route gavage, dose level Control; for APTT / Bas / Eos / Fbg / Hb / Ht / Lym / MCH / MCHC / MCV / Mono / Neu / PT / Plat / RBC / Ret / WBC: tissue Blood; for KIDNEY_L / KIDNEY_R / KIDNEY_TOTAL: tissue Kidney; for LIVER: tissue Liver; for A/G / ALP / ALT / AST / BUN / CRE / Ca / Cl / DBIL / GLC / IP / K / LDH / Na / PL / RALB / TBIL / TC / TG / TP / gamma-GTP: tissue Plasma
smiles,measurement,setting,value
O=c1ccc2ccccc2o1 [COUMARIN],TERMINAL_BW,"72 h, time 3 day",197.7 g
same,APTT,"72 h, time 3 day",16.2 s
same,Bas,"72 h, time 3 day",0%
same,Eos,"72 h, time 3 day",1.2%
same,Fbg,"72 h, time 3 day",204.2 mg/dL
same,Hb,"72 h, time 3 day",13.4 g/dL
same,Ht,"72 h, time 3 day",40.7%
same,Lym,"72 h, time 3 day",64.8%
same,MCH,"72 h, time 3 day",21.6 pg
same,MCHC,"72 h, time 3 day",32.8%
same,MCV,"72 h, time 3 day",65.9 fL
same,Mono,"72 h, time 3 day",9.8%
same,Neu,"72 h, time 3 day",24.2%
same,PT,"72 h, time 3 day",11.8 s
same,Plat,"72 h, time 3 day",97.8 x10_4/uL
same,RBC,"72 h, time 3 day",617.8 x10_4/ul
same,Ret,"72 h, time 3 day",8%
same,WBC,"72 h, time 3 day",95.9 x10_2/uL
same,KIDNEY_L,"72 h, time 3 day",0.9 g
same,KIDNEY_R,"72 h, time 3 day",0.9 g
same,KIDNEY_TOTAL,"72 h, time 3 day",1.9 g
same,LIVER,"72 h, time 3 day",9.7 g
same,A/G,"72 h, time 3 day",2.1
same,ALP,"72 h, time 3 day",849.4 IU/L
same,ALT,"72 h, time 3 day",39.8 IU/L
same,AST,"72 h, time 3 day",68.6 IU/L
same,BUN,"72 h, time 3 day",15.2 mg/dL
same,CRE,"72 h, time 3 day",0.5 mg/dL
same,Ca,"72 h, time 3 day",10.7 mg/dL
same,Cl,"72 h, time 3 day",104.8 meq/L
same,DBIL,"72 h, time 3 day",0.036 mg/dL
same,GLC,"72 h, time 3 day",204.6 mg/dL
same,IP,"72 h, time 3 day",8 mg/dL
same,K,"72 h, time 3 day",4.9 meq/L
same,LDH,"72 h, time 3 day",87.4 IU/L
same,Na,"72 h, time 3 day",138.8 meq/L
same,PL,"72 h, time 3 day",134.6 mg/dL
same,RALB,"72 h, time 3 day",3.8 g/dL
same,TBIL,"72 h, time 3 day",0.3 mg/dL
same,TC,"72 h, time 3 day",79.6 mg/dL
same,TG,"72 h, time 3 day",58.6 mg/dL
same,TP,"72 h, time 3 day",5.6 g/dL
same,gamma-GTP,"72 h, time 3 day",1 IU/L
same,TERMINAL_BW,"[…], time 7 day",227.5 g
same,TERMINAL_BW,"[…], time 14 day",286.1 g
same,TERMINAL_BW,"[…], time 28 day",359.5 g
same,APTT,"[…], time 7 day",16.5 s
same,Bas,"[…], time 7 day",0%
same,Eos,"[…], time 7 day",0.6%
same,Fbg,"[…], time 7 day",218.4 mg/dL
same,Hb,"[…], time 7 day",13.8 g/dL
same,Ht,"[…], time 7 day",41.6%
same,Lym,"[…], time 7 day",83.4%
same,MCH,"[…], time 7 day",21.3 pg
same,MCHC,"[…], time 7 day",33.2%
same,MCV,"[…], time 7 day",64.1 fL
same,Mono,"[…], time 7 day",4%
same,Neu,"[…], time 7 day",11.8%
same,PT,"[…], time 7 day",12 s
same,Plat,"[…], time 7 day",108.5 x10_4/uL
same,RBC,"[…], time 7 day",649.8 x10_4/ul
same,Ret,"[…], time 7 day",6.1%
same,WBC,"[…], time 7 day",145 x10_2/uL
same,APTT,"[…], time 14 day",16.7 s
same,Bas,"[…], time 14 day",0.2%
same,Eos,"[…], time 14 day",0.6%
same,Fbg,"[…], time 14 day",230.2 mg/dL
same,Hb,"[…], time 14 day",14.2 g/dL
same,Ht,"[…], time 14 day",42.9%
same,Lym,"[…], time 14 day",81%
same,MCH,"[…], time 14 day",20.6 pg
same,MCHC,"[…], time 14 day",33.2%
same,MCV,"[…], time 14 day",62 fL
same,Mono,"[…], time 14 day",7.4%
same,Neu,"[…], time 14 day",10.8%
same,PT,"[…], time 14 day",11.7 s
same,Plat,"[…], time 14 day",117.6 x10_4/uL
same,RBC,"[…], time 14 day",692.4 x10_4/ul
same,Ret,"[…], time 14 day",4.8%
same,WBC,"[…], time 14 day",114.9 x10_2/uL
same,APTT,"[…], time 28 day",17.8 s
same,Bas,"[…], time 28 day",0.2%
same,Eos,"[…], time 28 day",1.2%
same,Fbg,"[…], time 28 day",225 mg/dL
same,Hb,"[…], time 28 day",15.1 g/dL
same,Ht,"[…], time 28 day",45.2%
same,Lym,"[…], time 28 day",79.6%
same,MCH,"[…], time 28 day",19.6 pg
same,MCHC,"[…], time 28 day",33.4%
same,MCV,"[…], time 28 day",58.8 fL
same,Mono,"[…], time 28 day",5%
same,Neu,"[…], time 28 day",13.8%
same,PT,"[…], time 28 day",12 s
same,Plat,"[…], time 28 day",101 x10_4/uL
same,RBC,"[…], time 28 day",769 x10_4/ul
same,Ret,"[…], time 28 day",2.8%
same,WBC,"[…], time 28 day",128.8 x10_2/uL
same,KIDNEY_L,"[…], time 7 day",1 g
same,KIDNEY_R,"[…], time 7 day",1 g
same,KIDNEY_TOTAL,"[…], time 7 day",2 g
same,KIDNEY_L,"[…], time 14 day",1.2 g
same,KIDNEY_R,"[…], time 14 day",1.2 g
same,KIDNEY_TOTAL,"[…], time 14 day",2.3 g
same,KIDNEY_L,"[…], time 28 day",1.4 g
same,KIDNEY_R,"[…], time 28 day",1.4 g
same,KIDNEY_TOTAL,"[…], time 28 day",2.7 g
same,LIVER,"[…], time 7 day",11.4 g
same,LIVER,"[…], time 14 day",14 g
same,LIVER,"[…], time 28 day",16.1 g
same,A/G,"[…], time 7 day",2.2
same,ALP,"[…], time 7 day",954.6 IU/L
same,ALT,"[…], time 7 day",35.6 IU/L
same,AST,"[…], time 7 day",58 IU/L
same,BUN,"[…], time 7 day",17.8 mg/dL
same,CRE,"[…], time 7 day",0.6 mg/dL
same,Ca,"[…], time 7 day",10.6 mg/dL
same,Cl,"[…], time 7 day",104.8 meq/L
same,DBIL,"[…], time 7 day",0.014 mg/dL
same,GLC,"[…], time 7 day",189.8 mg/dL
same,IP,"[…], time 7 day",7.5 mg/dL
same,K,"[…], time 7 day",4.9 meq/L
same,LDH,"[…], time 7 day",79.6 IU/L
same,Na,"[…], time 7 day",138.6 meq/L
same,PL,"[…], time 7 day",142.6 mg/dL
same,RALB,"[…], time 7 day",3.9 g/dL
same,TBIL,"[…], time 7 day",0.3 mg/dL
same,TC,"[…], time 7 day",70 mg/dL
same,TG,"[…], time 7 day",108.8 mg/dL
same,TP,"[…], time 7 day",5.7 g/dL
same,gamma-GTP,"[…], time 7 day",1.4 IU/L
same,A/G,"[…], time 14 day",2
same,ALP,"[…], time 14 day",840.4 IU/L
same,ALT,"[…], time 14 day",32.4 IU/L
same,AST,"[…], time 14 day",59 IU/L
same,BUN,"[…], time 14 day",17.2 mg/dL
same,CRE,"[…], time 14 day",0.6 mg/dL
same,Ca,"[…], time 14 day",10.8 mg/dL
same,Cl,"[…], time 14 day",106.2 meq/L
same,DBIL,"[…], time 14 day",0.08 mg/dL
same,GLC,"[…], time 14 day",192 mg/dL
same,IP,"[…], time 14 day",7.5 mg/dL
same,K,"[…], time 14 day",4.8 meq/L
same,LDH,"[…], time 14 day",84.8 IU/L
same,Na,"[…], time 14 day",139.4 meq/L
same,PL,"[…], time 14 day",165.8 mg/dL
same,RALB,"[…], time 14 day",4 g/dL
same,TBIL,"[…], time 14 day",0.3 mg/dL
same,TC,"[…], time 14 day",84 mg/dL
same,TG,"[…], time 14 day",104 mg/dL
same,TP,"[…], time 14 day",6 g/dL
same,gamma-GTP,"[…], time 14 day",1.4 IU/L
same,A/G,"[…], time 28 day",1.7
same,ALP,"[…], time 28 day",705.8 IU/L
same,ALT,"[…], time 28 day",31.2 IU/L
same,AST,"[…], time 28 day",54.2 IU/L
same,BUN,"[…], time 28 day",18.8 mg/dL
same,CRE,"[…], time 28 day",0.6 mg/dL
same,Ca,"[…], time 28 day",10.7 mg/dL
same,Cl,"[…], time 28 day",106 meq/L
same,DBIL,"[…], time 28 day",0.012 mg/dL
same,GLC,"[…], time 28 day",215 mg/dL
same,IP,"[…], time 28 day",6.5 mg/dL
same,K,"[…], time 28 day",4.5 meq/L
same,LDH,"[…], time 28 day",51 IU/L
same,Na,"[…], time 28 day",138.8 meq/L
same,PL,"[…], time 28 day",137.4 mg/dL
same,RALB,"[…], time 28 day",4 g/dL
same,TBIL,"[…], time 28 day",0.3 mg/dL
same,TC,"[…], time 28 day",63 mg/dL
same,TG,"[…], time 28 day",126 mg/dL
same,TP,"[…], time 28 day",6.4 g/dL
same,gamma-GTP,"[…], time 28 day",1 IU/L
